The numbers were not newly measured in article PMC9316000, “Preclinical Drug Pharmacokinetic, Tissue Distribution and Excretion Profiles of the Novel Limonin Derivate HY-071085 as an Anti-Inflammatory and Analgesic Candidate in Rats and Beagle Dogs” (Pharmaceuticals, 2022), which cites them from elsewhere.

Like-named read-outs stand apart in the source and are kept apart here.

On the set-up of series [1]: method as in earlier work. The conditions noted are these: Temp 25℃, pH 7.0; cited from earlier work.
Details of series [2]: method as in earlier work. To be noted: Temp 25℃; cited from earlier work.
Details of series [3]: method as in earlier work. To be noted: Temp 25℃; cited from earlier work. This is another data set of the same source.
On the set-up of series [4]: method as in PMID 16435568. To be noted: cited from earlier work.

`CC1(C)O[C@H]2CC(=O)OC[C@]23[C@H]2CC[C@@]4(C)[C@H](c5ccoc5)OC(=O)[C@H]5O[C@]54[C@]2(C)C(=O)C[C@@H]13` [Limonin]: in series [1], the LogD is 0.47. The Intrinsic solubility in series [2] was 220 µg/mL. Further, in series [3], the logP was 0.474. Further, the “exposure of female rats relative to male rats” value in series [4] (intravenous administration) was “three-fold higher”; in series [4] (oral administration), 50 fold.
